These results are taken from publication PMC6264190, “Interaction of α-Melanocortin and Its Pentapeptide Antisense LVKAT: Effects on Hepatoprotection in Male CBA Mice” (Molecules, 2011).

Entries after “also recorded” stand apart in the source; their conditions may differ.

Data set [1] relates to hepatoprotective effects of α-MSH on the APAP induced hepatic lesions. Description: Modulation of α-MSH hepatoprotection by antisense peptide in vivo (overall). The arrangement: species or system male CBA mice. The method, then: (§1) Experimental animals were male CBA mice, 12-16 weeks old, weighing 20-25 g and bred at the Ruđer Bošković Institute. Experiments were performed according to the ILAR Guide for the Care and Use of Laboratory Animals, Council Directive 86/609/EEC, and Croatian Animal Protection Act (Official Gazette 135/06). The animals were kept in a room with dark-light cycle (12h/12h) and constant temperature (22 ± 1 °C). Hepatotoxicity was induced according to the slightly modified procedure of Guarner et al.. To induce hepatic drug-metabolizing enzymes mice were given 0.3 g/L phenobarbitone-sodium (Kemika, Zagreb, Croatia) for 7 days. […] (Krka, Novo Mesto, Slovenia) 150 mg/kg was given intragastrically (i.g.), via a gastric tube, in a volume of 0.5 mL. […] Control animals were treated with saline (0.9% NaCl). The size of experimental groups was 6-8. Mice that spontaneously died were excluded from histopathological or biochemical analysis. […] However, the difference was not statistically significant.
(§2) Sections of the liver were fixed in 10% phosphate buffered formalin, embedded in paraffin, sectioned at 4 µm, and stained with hematoxilin and eosin. […] Alanine aminotransferase (ALT) and aspartate aminotransferase (AST) activity was determined from plasma by standard laboratory techniques. […]

Data set [2] concerns acetaminophen (APAP)-induced liver lesions in male CBA mice. In words: Histopathological grading of acetaminophen (APAP)-induced liver lesions. The data set is classed as in vivo. The following applies: mean ± SD; acetaminophen 150 mg/kg i.g.; α-MSH 2.5 mg/kg, LVKAT 0.8 mg/kg or their equimolar mixture i.p. 1 hour before; scored at 24 hours; 0 = no lesions, 5 = severe; group size 6-8; untreated controls 4.8 ± 0.46; α-MSH p < 0.05, LVKAT and mixture p > 0.05 vs controls. How it is done:
as §1, §2

The subject of a further data set is LVKAT. In words: Tryptophan fluorescence spectrofluorometric titration of sense peptides with antisense peptide LVKAT. The data set is classed as binding. The method, then: Tryptophan fluorescence was used to detect binding of antisense pentapeptide LVKAT to the central binding region of α-MSH molecule. […] One was attributed to α-MSH and the other to its complex with antisense pentapeptide LVKAT. […] Consequently, the proposed model is given by Equation (1) and Equation (2), where Kd is the dissociation constant of the complex: […]
SENSE - LVKAT ⇄ SENSE + LVKAT(1)
Figure 2 A typical titration of 2.5 µM solution of α-MSH (sense) with LVKAT (antisense) at 25 °C, pH = 7.4, 10 mM phosphate buffer. The concentration of LVKAT was varied from 50 to 750 μM. Fluorescence units (f.u.) are given as a ratio of signals obtained from sample and reference PMTs. Inset: Fitting curve at 360 nm according to the Equation (1) and Equation (2).
Figure 3 A typical titration of 25 µM solution of EHFRW (sense) with LVKAT (antisense) at 25 °C, pH = 7.4, 10 mM phosphate buffer. The concentration of LVKAT was varied from 50 to 500 µM. Fluorescence units (f.u.) are given as a ratio of signals obtained from sample and reference PMTs. Inset: Fitting curve at 360 nm according to the Equation (1) and Equation (2).
Fluorescence spectra were measured at 25 °C by OLIS RSM 1000F spectrofluorimeter (Olis, Bogart, GA, USA) equipped with thermostatted cell holder. […] Data obtained from the titrations were analyzed with the Specfit software package.

Another data set has as its system male CBA mice. In words: Spontaneous deaths in the acetaminophen hepatotoxicity model. The format is in vivo. As to conditions: starting number eight per group; acetaminophen 150 mg/kg i.g.; α-MSH 2.5 mg/kg, LVKAT 0.8 mg/kg or equimolar mixture i.p.; none died in control; difference not statistically significant. How it is done: as §1
Data set [3] has as its system acetaminophen-induced hepatotoxicity in male CBA mice. Description: Plasma aspartate aminotransferase (AST) activity 24 h after acetaminophen administration. The format is in vivo. As to conditions: mean ± SD; 24 h after acetaminophen 150 mg/kg i.g.; α-MSH 2.5 mg/kg, LVKAT 0.8 mg/kg or their equimolar mixture i.p. 1 hour before; group size 6-8; untreated controls 6091 ± 4275; α-MSH significantly lower, LVKAT and mixture p > 0.05; normal animals 109.3 ± 25.3. How it is done:
as §1, §2

Data set [4] shares this test system. Description: Plasma alanine aminotransferase (ALT) activity 24 h after acetaminophen administration. The format is in vivo. As to conditions: mean ± SD; 24 h after acetaminophen 150 mg/kg i.g.; α-MSH 2.5 mg/kg, LVKAT 0.8 mg/kg or their equimolar mixture i.p. 1 hour before; group size 6-8; untreated controls 10087 ± 9595; α-MSH significantly lower, LVKAT and mixture p > 0.05; normal animals 37.7 ± 7.7. The method, then:
as §1, §2

Data set [5] concerns acetaminophen induced hepatotoxicity. The following applies: mouse model of acetaminophen induced hepatotoxicity; ref [15],[16]; cited from earlier work. An excerpt:
Alpha-melanotropin (α-MSH) is an ancient, evolutionally conserved, tridecapeptide derived by the proteolytic cleavage from the pro-opiomelanocortin (POMC) hormone. It is currently the most widely studied melanocortin peptide in the context of tissue inflammation and cytoprotection. Recently, Turčić et al. […] Turčić et al. […] Sections of the liver were fixed in 10% phosphate buffered formalin, embedded in paraffin, sectioned at 4 µm, and stained with hematoxilin and eosin. Sections were examined by using light microscope, and grading of the liver lesions was done on 0-5 point scale according to Silva et al. (0 = no lesions, 1 = minimal, 2 = mild, 3 = moderate, 4 = marked and 5 = severe lesions). Alanine aminotransferase (ALT) and aspartate aminotransferase (AST) activity was determined from plasma by standard laboratory techniques. Plasma was sep ...

For a further data set, the system named is antibody to L-α-MSH. The following applies: ref [15],[16]; cited from earlier work.

As to “LVKAT [pentapeptide antisense to central region of α-MSH that serves as the pharmacophore for melanocortin receptors]”, the “effect of LVKAT alone (hepatoprotection, in words)” value in data set [1] (LVKAT 0.8 mg/kg i.p. 1 hour before acetaminophen 150 mg/kg i.g., p > 0.05 vs untreated controls) is listed as “not hepatoprotective per se”. Besides, in data set [1] (LVKAT given with α-MSH (equimolar) i.p. 1 hour before acetaminophen 150 mg/kg i.g., histopathology, ALT and AST), the “effect on hepatoprotection by α-MSH (in words)” value is reported as “abolishes hepatoprotective effects of α-MSH”. Besides, in data set [2], the “liver lesion score (scale 0-5)” value was determined as 5 ± 0.

On to “Ac-SYSMEHFRWGKPV-NH2 [α-MSH, tridecapeptide derived by the proteolytic cleavage from the pro-opiomelanocortin (POMC) hormone]”, for which the “stoichiometry of complex with LVKAT” value in the data set on LVKAT (SVD analysis of fluorescence titration spectra, Specfit, no higher order complexes) fell in the range of 1 to 1 complex formation. Further, the “animals that died spontaneously” value in the data set with male CBA mice is given as “none of the animals died”. The “blood (plasma) aspartate aminotransferase (AST)” value in data set [3] worked out at 539.5 ± 459.6 U/L. For the same substance, the “blood (plasma) alanine aminotransferase (ALT)” value in data set [4] was found to be 585.8 ± 1424 U/L. Besides, in data set [2], the “liver lesion score (scale 0-5)” value worked out at 2 ± 0.75. For the same substance, in data set [5], the “hepatoprotective effect (in words)” value is “strong and dose dependent hepatoprotective effects; also recorded: potent hepatoprotective effects”.

Turning to “Ac-SYSMEHFRWGKPV-NH2 [D-α-MSH, D-enantiomer of α-MSH]”, the “binding to LVKAT in fluorescence titration (in words)” value with LVKAT (same experimental conditions as for α-MSH (25 °C, pH = 7.4, 10 mM phosphate buffer)) is “very weak (if any) binding”. Further, in the data set on antibody to L-α-MSH, the “binding to antibody to L-α-MSH” value is “does not bind antibody to L-α-MSH”.
